In article PMC4595804, “A strategy to discover decoy chemokine ligands with an anti-inflammatory activity” (Scientific Reports, 2015):
Where two headings read alike, the source gives them in different places.

How the values were obtained:
[1] = target: T1, CCL17 (Homo sapiens, UniProt Q92583); assay: TRIC-r calcium assay, neutraligand protocol: compound preincubated with CCL17, EGFP-CCR4+Gqi5+ HEK cells; type: cell-based
T1 construct: codes for the mature CCL17 or CCL22 with an N-terminal thioredoxin-hexahistidin (TRX- (His)6) tag; thioredoxin (TRX) (N, cleaved yes); (His)6 (N, cleaved yes); made in house; host or cells: E. coli BL21 (DE3)
T1 sequence (Q92583 24-94): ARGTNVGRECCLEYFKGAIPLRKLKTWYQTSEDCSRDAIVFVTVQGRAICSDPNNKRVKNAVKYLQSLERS
Experimental: EGFP-CCR4^+Gqi5^+HEKcells were loaded with fluorescent Ca^2+-indicator Indo-1 AM (5μM, Interchim) for 45 min at 37 °C. […] Cells (100,000 cells/well, 100μl) were seeded in black clear bottom 96-well plates (Greiner), and centrifuged at 250 × g for 5 min.
Two plates (96-well plates, Greiner) were prepared for the screen: one containing test compounds alone in order to determine their direct agonistic activity, and another one containing test compounds mixed with CCL17 or CCL22 at room temperature for 1 h (neutraligand protocol). The chemokines and test compounds were prepared at a 3× concentration, while digitonin was prepared at a 4× concentration. The CCR4 antagonist, C-021 served as control in the experiment. In the antagonist protocol, compounds were added to the cell plate (one compound per well) and incubated with cells for 30 min at room temperature, while the agonist (CCL17 or CCL22) was added to the ligand plate only.
Dye loaded cells were placed in the FlexStation 3 (Molecular Devices). […] For the primary screening, the ligands (50μl of chemokine mixed with DMSO or test compounds) were added to the cells at 40 s, followed by digitonin addition (50μl) at 100 s to the cells. Molecules were screened at a final concentration of 2μg/ml with 5 nM CCL17 or CCL22. […] The calcium response values (height of peak response over baseline) were determined. Hits were selected by comparing the response amplitude at the time of the chemokine addition ± test compound. The Z’ factor[29] was calculated according to the following equation: Z’ = 1-(3SD+ + 3SD−)/|Ave+ − Ave−|, where SD+ and Ave+ are respectively the standard deviation and the mean value of the positive controls (chemokine + DMSO), while SD− and Ave− are respectively the standard deviation and the mean value of the negative controls (HEPES-BSA (0.1%) mixed with DMSO, or cells mixed with C-021). Hit molecules were confirmed by performing concentration-response curves and their half maximal inhibitory concentration (IC50) values were calculated using the Kaleidagraph software.

[2] = test system: HUT78 T cells; assay: WST-1 metabolic activity assay; type: cell-based, human; settings: 30 μM (highest concentration), 72 h
Text: WST-1 metabolic activity assay
The colorimetric WST-1 cell metabolic assay (Ozyme) was used to assess the cytotoxic effect of chemokine neutraligands. This is a cell viability test based on the enzymatic cleavage by the mitochondrial succinate-tetrazolium reductase of a tetrazolium salt, WST-1 (4-[3-(4-Iodophenyl)-2-(4-nitrophenyl)-2H-5-tetrazolio]-1,3 benzene disulfonate), into a water- […]
soluble formazan dye which can be detected by absorbance at 420-480nm. HUT78 T cells (or HaCat cells) were seeded on 24-well plates (200,000 cells per well) and were incubated […]
concentration ≤1% on cells). The background control was reserved as one well containing the culture medium only. The plates were incubated for 72h at 37°C. Three days later, the medium containing the neutraligands was removed, and WST-1 reagent (1:10 final dilution) (Ozyme) was added to each well for a 2h incubation at 37°C as the manufacturer’s recommendation. The plates were shaken and absorbance was measured at 450nm (reference wavelength 690nm) against the background control, using a multiwell plate reader (EnVision, Perkin Elmer). Assays were performed as three independent replicates. […]
(Heidelberg, Germany) and was cultured in Dulbecco’s Modified Eagle Medium (DMEM) (Invitrogen) supplemented with 10% fetal bovine serum (FBS) (Gibco-BRL), 100U/ml penicillin (Invitrogen), 100µg/ml streptomycin (Invitrogen) and 2mM L-glutamine (Invitrogen) at 37°C and 5% CO 2. The cells received fresh medium every other day and were subcultured every 10 days. HaCat cells were seeded in a 24-well plate (ESSEN Bioscience) at a density of 200,000 cells per well, and were allowed to grow until confluence. A scratch wound along the cell monolayer was created using the Essen woundmakerTM. Cells were washed twice with PBS to remove detached cells, and were treated with serum-free culture medium in the absence or presence of 100ng/ml chemokine (CCL22 or CCL17) preincubated with DMSO or […]
The molecules were also tested alone […]
without the chemokine. […] One […]
µg/ml of mitomycin C (Sigma-Aldrich) was added throughout the experiment in order to block cell proliferation. Once treated, the cells were immediately placed into the IncuCyteTM live-cell imaging, and the cell migration onto the wounded area was examined for 72h. Phase-contrast images acquired for each sample were captured every 2h (objective lens x10), and […]

[3] = target: T2, COX1 (Homo sapiens, UniProt P23219); assay: COX1 mediated PGE2 release in primary monocytes; type: cell-based; settings: monocytes + arachidonic acid
T2 construct: endogenous in cells; host or cells: primary human monocytes
T2 sequence (P23219 24-599): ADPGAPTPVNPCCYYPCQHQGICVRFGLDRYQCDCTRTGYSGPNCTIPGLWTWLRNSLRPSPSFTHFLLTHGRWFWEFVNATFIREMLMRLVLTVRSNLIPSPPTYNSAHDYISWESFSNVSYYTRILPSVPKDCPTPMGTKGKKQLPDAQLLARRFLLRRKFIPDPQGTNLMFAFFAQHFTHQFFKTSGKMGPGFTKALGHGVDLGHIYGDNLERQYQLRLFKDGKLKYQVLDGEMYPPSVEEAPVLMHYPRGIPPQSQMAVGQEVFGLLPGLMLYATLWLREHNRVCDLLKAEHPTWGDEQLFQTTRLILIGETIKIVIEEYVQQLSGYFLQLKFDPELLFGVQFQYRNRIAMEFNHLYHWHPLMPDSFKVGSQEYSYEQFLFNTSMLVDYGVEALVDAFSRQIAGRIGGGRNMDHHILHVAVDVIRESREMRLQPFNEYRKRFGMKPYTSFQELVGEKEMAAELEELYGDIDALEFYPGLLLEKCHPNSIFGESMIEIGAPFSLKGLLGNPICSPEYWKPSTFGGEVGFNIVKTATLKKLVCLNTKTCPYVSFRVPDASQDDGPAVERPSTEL
Experimental: the wound closure was determined as the difference between wound width at times 0 and 72h. This experiment was repeated three times.
Human primary monocytes were isolated from buffy coats of healthy human blood donors and seeded in 24-well plates (500,000 cells/ml in 1ml) for COX-1/2 activity or 96-well plates for cell viability experiments.
Cells were seeded in 96 well plates (5,000 cells/well in 200µl) for cytotoxicity testing (Alamar […]
doses). After 24h, cytotoxicity was evaluated in the wells using the Alamar Blue method. NaF (250µg/ml) was used as a control in this experiment.
Cyclooxygenase (COX) activity
COX1 mediated prostaglandin E2 (PGE2) release. Monocytes were treated with arachidonic […]
were then collected for the determination of PGE2 by enzyme immunoassay (EIA) […]
COX2 mediated prostaglandin E2 (PGE2) release. Monocytes were incubated with LPS (10U/ml) for 24h to induce COX2 protein synthesis. After renewal of medium (serum free), […]
before AA treatment. The activity of COX2 was determined by measuring PGE2 (Cayman) in the supernatants by EIA. Aspirin (10µM) and diclofenac (10µM) were used as control […]
NaF (250µg/ml) was used as a control (relative light unit, r.l.u). (c) Monocytes were treated […]
GPN136 (grey bars). The activity of COX1 was determined by measuring prostaglandin E2 (PGE2). […]
of COX2 was determined by measuring PGE2. […]

| inhibition of CCL17-evoked calcium responses (selectivity) ([1]; 10 μM compound, 5 nM CCL17, EGFP-CCR4+ HEK cells) | inhibition at 5 µM ([1]; HEK293, compound 5 µM, read-out: Inhibition of CCL17 calcium responses (%)) [%] | doses at which COX1 activity is inhibited [3] [µM] | SMILES | cytotoxic activity on HUT78 T cells (metabolic activity vs control non-treated cells) [2] | calcium response induced by WT CCL17 preincubated with compound ([1]; 10 μM compound, 5 nM chemokine, remaining response) [%] | inhibition at 5 µM ([1]; HEK293, read-out: Inhibition of CCL17 calcium responses (%)) [%] | inhibition at 10 µM ([1]; HEK293, read-out: inhibition of CCL17-evoked calcium responses (selectivity)) [%] | inhibition at 2 µg/mL ([1]; HEK293, read-out: inhibition of CCL17-induced calcium responses (primary screen)) [%] | effect on COX1 activity (PGE2) ([3]; 100 µM) |
| --- | --- | --- | --- | --- | --- | --- | --- | --- | --- |
| no effect | 0 | > 100 | O=C(OCC(O)CO)c1ccccc1O (stereo not shown) [GPN136, 2,3-dihydroxypropyl 2-hydroxybenzoate] | no cytotoxic activity | – | – | – | – | – |
| – | – | – | CC(C)=CCn1cnc2c1c(=O)n(C)c(=O)n2C [GPN279, 1,3-dimethyl-7-(3-methylbut-2-enyl)-1H-purine-2,6(3H, 7H)-dione] | no cytotoxic activity | 56.0 ± 5.0 | 42 ± 4 | 40 | 42 | no effect |
